*1 amine or outer side, *2 acyl side, *3 side chain or, on linkers, in order; H or OH if unused. Where a SMILES comes first, the peptide text is derived from it. Bridges are numbered along the chain shown (N, C = ends). [ ]: non-standard residue; d: D form. The star is where a group is joined. hPhe(3,5-F2-4-CF3) = N[C@@H](CCc1cc(F)c(C(F)(F)F)c(F)c1)C(=O)O; hPhe(3-Cl-4-CF3) = N[C@@H](CCc1ccc(C(F)(F)F)c(Cl)c1)C(=O)O; NPrPhe(4-CF3) = CCCN[C@@H](Cc1ccc(C(F)(F)F)cc1)C(=O)O; NMeGly(cPent) = CN[C@H](C(=O)O)C1CCCC1; Pro(4,4-F2) = O=C(O)[C@@H]1CC(F)(F)CN1; X3 = CCC[C@](C)(N[*:1])C(=O)[*:2]; NMeD = CN[C@@H](CC(=O)O)C(=O)O; NMeL = CN[C@@H](CC(C)C)C(=O)O; Morpholide = C1CN(*)CCO1; Ac4c = NC1(C(=O)O)CCC1; Sar = CNCC(=O)O
Columns and labels:
[1] = target: GDP-bound NRAS wild-type protein (Homo sapiens, UniProt P01111); experiment: Binding to NRAS by surface plasmon resonance (SPR), KD and KD ratio to KRAS
Sequence of GDP-bound NRAS wild-type protein (P01111 whole entry): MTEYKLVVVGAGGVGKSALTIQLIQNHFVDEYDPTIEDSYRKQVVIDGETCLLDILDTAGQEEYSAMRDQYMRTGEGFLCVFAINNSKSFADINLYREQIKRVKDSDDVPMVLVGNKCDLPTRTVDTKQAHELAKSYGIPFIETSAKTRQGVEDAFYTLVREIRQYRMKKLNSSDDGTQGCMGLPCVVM
In short: (§1)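 Biotinylated GDP-bound RAS was captured at about 100–300 RU. Running buffer: HBS pH 7.4, 10 mM MgCl2, 10 µM GDP, 1 mM DTT, 0.01% Tween 20, 4% DMSO.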

HRAS wild-type protein = HRAS wild-type protein (Homo sapiens, UniProt P01112); experiment: Binding to HRAS by surface plasmon resonance (SPR), KD and KD ratio to KRAS
Sequence of HRAS wild-type protein (P01112 whole entry): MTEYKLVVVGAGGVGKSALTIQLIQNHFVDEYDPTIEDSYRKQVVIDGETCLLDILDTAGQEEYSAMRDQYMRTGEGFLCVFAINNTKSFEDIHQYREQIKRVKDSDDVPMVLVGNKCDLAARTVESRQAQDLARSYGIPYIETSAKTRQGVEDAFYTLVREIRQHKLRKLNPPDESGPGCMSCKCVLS
In short: as §1

[2] = system: human lung cancer strain NCI-H441; format: cell-based
In short: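 Step one: dispense the test compound in serial DMSO dilutions. Step three: add the reagent and measure […].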

[3] = ratio of KD for GDP-bound NRAS wild-type protein to KD for KRAS
[4] = ratio of KD for HRAS wild-type protein to KD for KRAS
[5] = ratio of KD value for GDP-bound NRAS wild-type protein to KD value for KRAS (SPR)
[6] = ratio of KD value for HRAS wild-type protein to KD value for KRAS (SPR)
[7] = ratio of the KD value with respect to GDP-bound NRAS wild-type protein to the KD value with respect to KRAS
[8] = ratio of the KD value with respect to HRAS wild-type protein to the KD value with respect to KRAS

IC50 [2] [nM] | Structure (SMILES) | NRAS /KRAS [1, 3] | HRAS /KRAS (HRAS wild-type protein; [4]) | NRAS /KRAS [1, 5] | HRAS /KRAS (HRAS wild-type protein; [6]) | NRAS /KRAS [1, 7] | HRAS /KRAS (HRAS wild-type protein; [8])
4.8 | CCC[C@H]1C(=O)N[C@@H]([C@@H](C)CC)C(=O)N(C)CC(=O)N(C)[C@H]2C/C=C\CCN(C2=O)[C@@H](Cc2ccc(C)cc2)C(=O)N(C)CC(=O)N[C@@H](CCc2ccc(C(F)(F)F)c(OC)c2)C(=O)N2C[C@H](OCC)C[C@H]2C(=O)NC2(CC(C)(C)C2)C(=O)N(C)[C@@H](C2CCCC2)C(=O)N(C)[C@H](C(=O)N(C)C)CC(=O)N1C [PP1892] |  |  | A (a compound having 10 or more and less than 20 is denoted as A) | B (a compound having 3 or more and less than 10 is denoted as B) |  | 
7.7 | CC[C@H](C)[C@@H]1NC(=O)[C@H](CC2CCC2)N(C)C(=O)C[C@@H](C(=O)N(C)C)N(C)C(=O)[C@H](C2CCCC2)N(C)C(=O)C2(CC(C)(C)C2)NC(=O)[C@@H]2C[C@H](C)CN2C(=O)[C@H](CCc2cc(F)c(C(F)(F)F)c(F)c2)NC(=O)CN(C)C(=O)[C@H](Cc2ccc(C(F)(F)F)cc2)N2CC/C=C\C[C@@H](C2=O)N(C)C(=O)CN(C)C1=O [PP1684] |  |  | A (a compound having 10 or more and less than 20 is denoted as A) | A (a compound having 10 or more and less than 20 is denoted as A) |  | 
135 | CCO[C@@H]1C[C@H]2C(=O)NC3(CCC3)C(=O)N(C)[C@@H](C3CCCC3)C(=O)N(C)[C@H](C(=O)N(C)C)CC(=O)N(C)[C@@H](CC)C(=O)N[C@@H]([C@@H](C)CC)C(=O)N(C)CC(=O)N(C)[C@H]3CCCCCN(C3=O)[C@@H](Cc3ccc(C(F)(F)F)cc3)C(=O)N(C)CC(=O)N[C@@H](CCc3cc(Cl)c(C(F)(F)F)c(Cl)c3)C(=O)N2C1 [PP0989] | B (a compound having 3 or more and less than 10 is denoted as B) | B (a compound having 3 or more and less than 10 is denoted as B) |  |  |  | 
1.7 | CCO[C@@H]1C[C@H]2C(=O)N(C)C3(CCC3)C(=O)N(C)[C@@H](C3CCCC3)C(=O)N(C)[C@H](C(=O)N(C)C)CC(=O)N(C)[C@@H](CC(C)C)C(=O)N[C@@H]([C@@H](C)CC)C(=O)N(C)CC(=O)N(C)[C@H]3C/C=C\CCN(C3=O)[C@@H](Cc3ccc(C)cc3)C(=O)N(C)CC(=O)N[C@@H](CCc3cc(F)c(C(F)(F)F)c(F)c3)C(=O)N2C1 [PP1790] |  |  | A (a compound having 10 or more and less than 20 is denoted as A) | B (a compound having 3 or more and less than 10 is denoted as B) |  | 
106 | CCC(CC)[C@H]1C(=O)N(C)[C@H](C(=O)N(C)C)CC(=O)N(C)[C@@H](COC)C(=O)N[C@@H]([C@@H](C)CC)C(=O)N(C)CC(=O)N(C)[C@H]2C/C=C\CCN(C2=O)[C@@H](Cc2ccc(C(F)(F)F)cc2)C(=O)N(C)CC(=O)N[C@@H](CCc2cc(F)c(C(F)(F)F)c(F)c2)C(=O)N2CCCC[C@H]2C(=O)NC2(CC(C)(C)C2)C(=O)N1C [PP2916] | A (a compound having 10 or more and less than 20 is denoted as A) | A (a compound having 10 or more and less than 20 is denoted as A) |  |  |  | 
28.3 | CCO[C@@H]1C[C@H]2C(=O)NC3(CCC3)C(=O)N(C)[C@@H](C3CCCC3)C(=O)N(C)[C@H](C(=O)N(C)C)CC(=O)N(C)[C@@H](C)C(=O)N[C@@H]([C@@H](C)CC)C(=O)N(C)CC(=O)N(C)[C@H]3C/C=C\CCN(C3=O)[C@@H](Cc3ccc(C(F)(F)F)cc3)C(=O)N(C)CC(=O)N[C@@H](CCc3cc(F)c(C(F)(F)F)c(F)c3)C(=O)N2C1 [PP1108] | A (a compound having 10 or more and less than 20 is denoted as A) | A (a compound having 10 or more and less than 20 is denoted as A) |  |  |  | 
14.8 | CC[C@H](C)[C@@H]1NC(=O)[C@H](CC(C)C)N(C)C(=O)C[C@@H](C(=O)N2CCOCC2)N(C)C(=O)[C@H](C2CCCC2)N(C)C(=O)C2(CCCC2)NC(=O)[C@@H]2C[C@H](OC)CN2C(=O)[C@H](CCc2cc(F)c(C(F)(F)F)c(F)c2)NC(=O)CN(C)C(=O)[C@H](Cc2ccc(C(F)(F)F)cc2)N2CCCC[C@@H](C2=O)N(C)C(=O)CN(C)C1=O [PP0557] |  |  |  |  | B (a compound having 3 or more and less than 10 is denoted as B) | B (a compound having 3 or more and less than 10 is denoted as B)
10.5 | CCCN(C)C(=O)[C@@H]1CC(=O)N(C)[C@@H](CC(F)F)C(=O)N[C@@H]([C@@H](C)CC)C(=O)N(C)CC(=O)N(C)[C@H]2C/C=C\CCN(C2=O)[C@@H](Cc2ccc(C(F)(F)F)cc2)C(=O)N(C)CC(=O)N[C@@H](CCc2cc(F)c(C(F)(F)F)c(F)c2)C(=O)N2C[C@@H](C)C[C@H]2C(=O)NC2(CC(C)(C)C2)C(=O)N(C)[C@@H](C2CCCC2)C(=O)N1C [PP2040] |  |  |  |  | A (a compound having 10 or more and less than 20 is denoted as A) | A (a compound having 10 or more and less than 20 is denoted as A)

Further lines, the compound ahead of its results:

Structure (SMILES) | IC50 [2] [nM] | NRAS /KRAS [1, 3] | HRAS /KRAS (HRAS wild-type protein; [4]) | NRAS /KRAS [1, 5] | HRAS /KRAS (HRAS wild-type protein; [6]) | NRAS /KRAS [1, 7] | HRAS /KRAS (HRAS wild-type protein; [8])
CCC[C@H]1C(=O)N[C@@H]([C@@H](C)CC)C(=O)N(C)CC(=O)N(C)[C@H]2C/C=C\CCN(C2=O)[C@@H](Cc2ccc(C)cc2)C(=O)N(C)CC(=O)N[C@@H](CCc2ccc(Cl)c(C(F)(F)F)c2)C(=O)N2C[C@H](OCC)C[C@H]2C(=O)NC2(CC(C)(C)C2)C(=O)N(C)[C@@H](C(CC)CC)C(=O)N(C)[C@H](C(=O)N(C)C)CC(=O)N1C [PP2787] | 22.1 | AA (a compound having 20 or more is denoted as AA) | A (a compound having 10 or more and less than 20 is denoted as A) |  |  |  | 
CC[C@H](C)[C@@H]1NC(=O)[C@H](CC(C)C)N(C)C(=O)C[C@@H](C(=O)N2CCOCC2)N(C)C(=O)[C@H](C2CCCC2)N(C)C(=O)C2(CCCC2)NC(=O)[C@@H]2CCCN2C(=O)[C@H](CCc2ccc(C(F)(F)F)c(Cl)c2)NC(=O)CN(C)C(=O)[C@H](Cc2ccc(C)cc2)N2CCCC[C@@H](C2=O)N(C)C(=O)CN(C)C1=O [PP0316] | 2.8 | C (A compound having a KD ratio of 0.1 or more and less than 3 is denoted as C) | B (a compound having 3 or more and less than 10 is denoted as B) |  |  |  | 
CCCN1C(=O)CN(C)C(=O)CNC(=O)[C@H]([C@@H](C)CC)NC(=O)[C@H](CC(C)C)N(C)C(=O)C[C@@H](C(=O)N(C)C)NC(=O)[C@H](C2CCCC2)N(C)C(=O)C2(CCC2)NC(=O)[C@@H]2CC(F)(F)CN2C(=O)[C@H](CCc2ccc(C(F)(F)F)c(Cl)c2)NC(=O)CN(C)C(=O)[C@@H]1Cc1ccc(C(F)(F)F)cc1 [PP0364] ([NMeL]IG[Sar][NPrPhe(4-CF3)][Sar][hPhe(3-Cl-4-CF3)][Pro(4,4-F2)][Ac4c][NMeGly(cPent)]D-NMe2; lactam N-11) | 103 | B (a compound having 3 or more and less than 10 is denoted as B) | B (a compound having 3 or more and less than 10 is denoted as B) |  |  |  | 
CCO[C@@H]1C[C@H]2C(=O)NC3(CCC3)C(=O)N(C)[C@@H](C3CCCC3)C(=O)N(C)[C@H](C(=O)N3CCCC3)CC(=O)N(C)[C@H]3CCCCC/C=C/c4ccc(cc4)C[C@@H](C(=O)N(C)CC(=O)N[C@@H](CCc4ccc(Cl)c(Cl)c4)C(=O)N2C1)N1CC/C=C\C[C@@H](C1=O)N(C)C(=O)CN(C)C(=O)[C@H]([C@@H](C)CC)NC3=O [PP3049] | 12.6 | AA (a compound having 20 or more is denoted as AA) | A (a compound having 10 or more and less than 20 is denoted as A) |  |  |  | 
CCO[C@@H]1C[C@H]2C(=O)NC3(CC(C)(C)C3)C(=O)N(C)[C@@H](C(CC)CC)C(=O)N(C)[C@H](C(=O)N(C)C)CC(=O)N(C)[C@@H](CC)C(=O)N[C@@H]([C@@H](C)CC)C(=O)N(C)CC(=O)N(C)[C@H]3C/C=C\CCN(C3=O)[C@@H](Cc3ccc(C(F)(F)F)cc3)C(=O)N(C)CC(=O)N[C@@H](CCc3ccc(C(F)(F)F)c(OC)c3)C(=O)N2C1 [PP2066] | 3.2 |  |  |  |  | A (a compound having 10 or more and less than 20 is denoted as A) | B (a compound having 3 or more and less than 10 is denoted as B)
CCCN1C(=O)CN(C)C(=O)CN(C)C(=O)[C@H]([C@@H](C)CC)NC(=O)[C@H](CC(C)C)N(C)C(=O)C[C@@H](C(=O)N2CCOCC2)N(C)C(=O)[C@H](C2CCCC2)N(C)C(=O)[C@](C)(CCC)NC(=O)[C@@H]2CCCN2C(=O)[C@H](CCc2cc(F)c(C(F)(F)F)c(F)c2)NC(=O)CN(C)C(=O)[C@@H]1Cc1ccc(C(F)(F)F)cc1 [PP0758] ([NMeL]I[Sar][Sar][NPrPhe(4-CF3)][Sar][hPhe(3,5-F2-4-CF3)]P[X3][NMeGly(cPent)][NMeD]-Morpholide; lactam N-11) | 153 |  |  |  |  | B (a compound having 3 or more and less than 10 is denoted as B) | C (A compound having a KD ratio of 0.1 or more and less than 3 is denoted as C)
CC[C@H](C)[C@@H]1NC(=O)[C@H](COC)N(C)C(=O)C[C@@H](C(=O)N2CCOCC2)N(C)C(=O)[C@H](C2CCCC2)N(C)C(=O)C2(CCCC2)NC(=O)[C@@H]2CC(F)(F)CN2C(=O)[C@H](CCc2cc(F)c(C(F)(F)F)c(F)c2)NC(=O)CN(C)C(=O)[C@H](Cc2ccc(C(F)(F)F)cc2)N2CCCCC[C@@H](C2=O)N(C)C(=O)CN(C)C1=O [PP0846] | 22.2 | B (a compound having 3 or more and less than 10 is denoted as B) | B (a compound having 3 or more and less than 10 is denoted as B) |  |  |  | 
